Test results as given in PMC7048748, “Anxiolytic Drug FGIN-1-27 Ameliorates Autoimmunity by Metabolic Reprogramming of Pathogenic Th17 Cells” (Scientific Reports, 2020).

Tests used:
STAT3 = test: Phospho Stat3 staining after IL-6 re-stimulation; type: cell-based, mouse; conditions: re-stimulation with IL-6
Procedure: The following day, cells were treated with either DMSO or of FGIN-1-27 (10 μM). For phospho-ZAP70 analyses, cells were stained after 24 hours of treatment using 10 μg/ml of biotinylated anti-CD3 (145-2C11, BD Biosciences) and anti-CD28 (37.51, BD Biosciences) antibodies on ice for 15 minutes, washed, and stimulated in presence of 20 μg/ml of Streptavidin for 10 minutes at 37 degrees. Cells were then fixed in 2% PFA, permeabilized in Methanol/Acetone and stained with anti-phospho ZAP70 antibody (n3kobu5, eBioscience) and anti-CD4 (RM4-5, eBioscience). For phospho-STAT3 analyses, cells were cultured for additional 24 hours in IL-6 free media, before stimulation with 100 ng/ml of mIL-6 for 30 minutes. Cells were then fixed in 2% PFA, permeabilized in Methanol/Acetone and stained with anti-phospho-STAT3 antibody (4/P-STAT3, BD Biosciences) and anti-CD4. Dead cells were excluded using Live/Dead […] (Thermo Fisher) staining prior to stimulation. page 3: Supplementary Figur es Fig S1 (a) Genomic browser screenshot of Tspo depicting normalized RNA-seq read coverage (RPM) in different T cell subsets. Data were downloaded from NCBI GEO (accession number GSE40918) and processed as in Figure 4A. […] (g) Transcript levels for S ta t3 after 24 hours of treatment with DMSO or FGIN-1-27 quantified by qPCR. […]

[1] = system: experimental autoimmune encephalomyelitis (EAE); test: Passive EAE by adoptive transfer of treated 2D2 Th17 cells; type: in vivo, mouse
Procedure: We interrogated whether FGIN-1-27 can influence Th17 dependent pathology in vivo by using a mouse model of passive EAE in which Th17 cells are responsible for driving immuno-pathogenesis. To this end, we sorted naïve CD4^+ T cells (CD4^+Vβ11^+CD62L^hi) from spleen and lymph nodes of “2D2” T cell receptor (TCR) transgenic mice that specifically recognize myelin oligodendrocyte glycoprotein (MOG) peptide and activated them under Th17 polarizing conditions. The cultures were treated with DMSO or FGIN-1-27 during the Th17 differentiation process and cells were reactivated on day 5 for an additional 48 hours and equal numbers of 2D2 Th17 polarized cells treated either with DMSO or FGIN-1-27 were adoptively transferred to recipient mice.
(a) Immunophenotyping of 2D2 TCR transgenic CD4^+ T cells for intracellular IL-17 and IFNγ before adoptive transfer. Cultures were treated with DMSO or FGIN-1-27 during Th17 polarization process. (b) Mean clinical scores of mice following the adoptive transfer of 5 × 10^6 2D2 Th17 cells treated with DMSO or 5 × 10^6 2D2 Th17 cells treated with FGIN-1-27. […] The error bars represent SEM. (c) Mean clinical scores of T cell-deficient (Tcrb^−/−) mice following adoptive transfer of 5 × 10^6 2D2 Th17 cells treated with DMSO or 5 × 10^6 2D2 Th17 cells treated with FGIN-1-27. […] The error bars represent SEM. (d) Enumeration of total mononuclear or 2D2 CD4^+ T cells (CD4^+Vβ11^+) in spleens of mice receiving either DMSO or FGIN-1-27 treated 2D2 T cells. Cells were analyzed at the peak of EAE disease (day 15 post-transfer) by flow cytometry. The error bars represent SD. (e) Enumeration of total CNS mononuclear or CNS-infiltrating 2D2 CD4^+ T cells (CD4^+Vβ11^+) in mice receiving either DMSO or FGIN-1-27 treated 2D2 T cells. Cells were analyzed at the peak of EAE disease (day 15 post-transfer) by flow cytometry. The errors bars represent SD. (f) Intracellular cytokine staining of 2D2 CD4^+ T cells (day 15 post-transfer) for IL-17, IFNγ and GM-CSF from the CNS of mice that received either DMSO or FGIN-1-27 treated cells. The error bars represent SD.
Naïve CD4^+ T cells (CD4^+Vβ11^+CD62L^hi) were sorted from the spleens and lymph nodes of 2D2 TCR transgenic mice and polarized towards Th17 lineage in the presence of irradiated splenocytes (5:1 ratio) and 2.5 μg/ml anti-CD3 (145-2C11, BioXCell), 20 μg/ml anti-IL-4 (11B11, BioXCell), 20 μg/ml anti-IFNγ (XMG1.2, BioXCell), 30 ng/ml mIL-6 and 3 ng/ml hTGF-β1 (Miltenyi Biotec). The following day, cells were treated with either DMSO or FGIN-1-27 (10 μM) and IL-23 (10 ng/ml; R&D Systems) was added after 60 h of activation. On day 5 of culture, cells were reactivated on plates precoated with 2 μg/ml of anti-CD3 and anti-CD28 (PV1, BioXCell) for 48 h, and 5 million cells were adoptively transferred to recipient mice to induce passive-transfer EAE. Classical EAE symptoms were scored daily according to standard criteria: 0, asymptomatic; 1, flaccid tail; 2, hind-limb weakness and impaired righting ability; 3, hind-limb paralysis; 4, front- and hind-limb paralysis; 5, moribund or death.

Th17 cells = test: Whole-transcriptome RNA sequencing of treated CD4+ T cells; type: cell-based, mouse
Procedure: Total RNA extractions for RNA-seq were performed using the mirVana kit (Applied Biosystems). RNA concentration was measured using the Qubit RNA broad range assay in the Qubit Flurometer (Invitrogen) and RNA integrity was determined with Eukaryote Total RNA Nano Series II ChIP on a 2100 Bioanalyzer (Agilent). RNA-seq libraries were prepared using TruSeq RNA sample preparation kit (Illumina). In brief, oligo-dT purified mRNA was fragmented and subjected to first and second strand cDNA synthesis. cDNA fragments were blunt ended, ligated to Illumina adaptors and PCR amplified to enrich for the fragments ligated to adaptors. The resulting cDNA libraries were verified and quantified on Agilent Bioanalyzer and single-end 96 cycle sequencing was conducted (Illumina).
Reads were aligned to the mm10 genome and the GRCm38 v87 transcriptome with STAR v2.5.2a using default parameters and output tracks normalized by RPM (–outWigNorm RPM). RSEM v1.3 was used to calculate gene counts and TPMs on the transcriptome-aligned reads as previously described[37]. Differential expression analysis was performed in R v3.5.2, using DESeq. 2 v1.22.2. […] Heatmaps were generated with the R package, heatmap. Integrative Genomics Viewer v2.4.19 was used for visualization of normalized bigwig tracks.

SMILES: CCCCCCN(CCCCCC)C(=O)Cc1c(-c2ccc(F)cc2)[nH]c2ccccc12 [FGIN-1-27, N, N-di-n-hexyl 2-(4-fluorophenyl) indole-3-acetamide]
- phosphorylation of STAT3 (STAT3): did not show a defect
- onset and severity of EAE ([1]; T cell deficient (Tcrb−/−) recipient mice, p = 0.0067): delayed onset and reduced severity of EAE
- 2D2 CD4+ T cells recovered from the CNS ([1]; day 15 post-transfer): fewer
- 2D2 CD4+ T cells recovered from the spleens ([1]; day 15 post-transfer): higher number
- IFNγ and GM-CSF production of CNS 2D2 CD4+ T cells ([1]; day 15 post-transfer): intact
- percentage and absolute numbers of IL-17 producing 2D2 CD4+ T cells from the CNS ([1]; day 15 post-transfer): significant reduction
- IL-17 producing 2D2 T cells before adoptive transfer ([1]; pre-transfer, 10 μM during Th17 polarization): reduced percentage of IL-17 producing cells
- disease symptoms (mean clinical scores) ([1]; recipient mice, 5 × 10^6 treated 2D2 Th17 cells, p < 0.02): much milder disease symptoms
- genes encoding glycolytic enzymes (hexokinase, phosphofructokinase, pyruvate kinase) (Th17 cells; 24 hours): significantly down-regulated
- differentially expressed genes (Th17 cells; vs DMSO, FDR < 0.05, 24 hours): 587
